# Columns and labels:
# Format in all cases: binding
# [1] = target: T1, CCR6 (Homo sapiens, UniProt P51684); assay: NanoBRET screen HiBiT-CCR6 in HEK293
# T1 construct: purchased Promega (in-house HiBiT-GPCR construct library, NanoBRET)
# T1 sequence (P51684 1-374): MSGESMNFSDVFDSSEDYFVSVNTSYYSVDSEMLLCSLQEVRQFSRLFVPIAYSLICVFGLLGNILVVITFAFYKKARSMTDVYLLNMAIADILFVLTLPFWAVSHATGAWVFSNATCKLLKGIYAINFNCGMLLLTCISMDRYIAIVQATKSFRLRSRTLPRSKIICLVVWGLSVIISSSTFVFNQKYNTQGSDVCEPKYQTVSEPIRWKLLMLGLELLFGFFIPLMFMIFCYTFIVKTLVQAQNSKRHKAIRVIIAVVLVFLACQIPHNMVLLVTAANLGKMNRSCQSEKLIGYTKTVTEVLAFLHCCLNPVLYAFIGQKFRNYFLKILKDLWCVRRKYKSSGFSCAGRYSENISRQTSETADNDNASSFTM
# Procedure: (§1) Each tracer candidate was screened across the entire library of HiBiT-GPCR constructs using NanoBRET as the detection modality. As depicted in Figure 4A, the specificity of interactions was evaluated through decrease in BRET due to competitive displacement of a bound tracer by excess parental compound. Each tracer was analyzed for binding to each HiBiT-GPCR fusion in the absence and in the presence of competing parental compound. Briefly, HEK293 cells were transfected with HiBiT-GPCR constructs diluted into promoterless DNA to reduce expression and maximize translocation to the cell surface. Each tracer candidate was then screened at concentrations of 1 μM and 0.1 μM across cells expressing these fusions. Cells were treated for 1.5 h with tracer either alone or in the presence of 20 μM competing parental compound (i.e., control). BRET was measured upon addition of purified LgBiT and subsequent complementation with HiBiT genetically fused to a GPCR. The specificity of interactions was assessed through a decrease in BRET signal due to competitive displacement of the bound tracer. To further gauge the robustness of these interactions, the fold response over the control (i.e., BRETtracer/BRETcontrol) was calculated. We chose a 1.5-fold response, which translates to ≥7-fold signal over noise as the minimal threshold required to score an interaction as positive. […]. Below we highlight the screening results obtained for our exemplary fluorescent tracers based on Clozapine, Amitriptyline and AZD1283.
# (§2) HiBiT-GPCR DNA constructs were diluted in 10 mM Tris pH 8 to a final concentration of 0.01 μg/μL, arrayed in 96-well plates and stored at −20 °C. For transfection, HEK293 cells were suspended in Opti-MEM (without phenol red) supplemented with 2% fetal bovine serum (Seradigm) and 100 units/mL penicillin–streptomycin (Gibco) at a final concentration of 220,000 cells/mL and dispensed into white 96-well plates at 90 μL/well. Subsequent transfections and screens were carried using an Agilent Bravo Automated Liquid Handling Platform. First, the 96-well HiBiT DNA arrays were diluted 25-fold in Opti-MEM (without serum or phenol red) to a final concentration of 0.0004 μg/μL and 20 μL of the diluted DNAs were transferred into new 96-well plates. Next, promoterless carrier DNA (1 μg/μL) was diluted 25-fold (0.04 μg/μL) and then dispensed into the diluted arrays at 20 μL/well. Following brief mixing, Viafect transfection reagent (Promega) diluted 16-fold into Opti-MEM was dispensed into the plates at 40 μL/well. After mixing by pipetting, plates were incubated for 10 min on the pipetting station deck. The DNA-transfection reagent complexes were then added to plates containing cells. To facilitate the screen, 10 μL of DNA-transfection reagent complexes were added in duplicates to the top 4 and bottom 4 rows, resulting in two identical 48-well arrays per plate. Plates with transfected cells were incubated for 18–20 h at 37 °C/5% CO2. A screen of each tracer across the entire library using two different concentrations requires duplicate plates of transfected cells. Depending on the number of tracers being screened, transfections can be scaled up using the same ratios. The next day, for each tracer, four 20× screening solutions in tracer dilution buffer (Promega) were prepared: two duplicates at final concentration of 20 μM and two duplicates at a final concentration of 2 μM. A competing unmodified compound was added to one of each duplicate at a final concentration of 400 μM. The four resulting solutions were diluted 4-fold in Opti-MEM without serum or phenol red to generate 5× solutions (5 µM and 0.5 µM tracer +/− 100 μM competing compound). To screen the library, a BioTek MultiFlo FX liquid dispenser was used to dispense 22.5 µL of tracer solution to the top 4 rows and 22.5 µL tracer + competing compound solution to the 4 bottom rows. Plates were briefly mixed on an orbital shaker and incubated for 1.5 h at room temperature. […]
# [2] = target: T2, FPR3 (Homo sapiens, UniProt P25089); assay: NanoBRET screen HiBiT-FPR3 in HEK293
# T2 construct: purchased Promega (in-house HiBiT-GPCR construct library, NanoBRET)
# T2 sequence (P25089 1-353): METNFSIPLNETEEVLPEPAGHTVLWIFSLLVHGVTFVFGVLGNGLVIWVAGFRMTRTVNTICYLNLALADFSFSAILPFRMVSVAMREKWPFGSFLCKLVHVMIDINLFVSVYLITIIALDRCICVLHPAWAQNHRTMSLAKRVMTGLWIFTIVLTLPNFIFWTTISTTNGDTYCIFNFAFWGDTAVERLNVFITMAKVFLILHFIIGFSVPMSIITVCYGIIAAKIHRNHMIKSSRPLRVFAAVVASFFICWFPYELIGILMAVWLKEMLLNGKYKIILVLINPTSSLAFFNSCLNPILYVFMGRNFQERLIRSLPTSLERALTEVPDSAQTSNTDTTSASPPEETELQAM
# Procedure: as §1, §2
# [3] = target: T3, NMUR1 (Homo sapiens, UniProt Q9HB89); assay: NanoBRET screen HiBiT-NMUR1 in HEK293
# T3 construct: purchased Promega (in-house HiBiT-GPCR construct library, NanoBRET)
# T3 sequence (Q9HB89 1-426): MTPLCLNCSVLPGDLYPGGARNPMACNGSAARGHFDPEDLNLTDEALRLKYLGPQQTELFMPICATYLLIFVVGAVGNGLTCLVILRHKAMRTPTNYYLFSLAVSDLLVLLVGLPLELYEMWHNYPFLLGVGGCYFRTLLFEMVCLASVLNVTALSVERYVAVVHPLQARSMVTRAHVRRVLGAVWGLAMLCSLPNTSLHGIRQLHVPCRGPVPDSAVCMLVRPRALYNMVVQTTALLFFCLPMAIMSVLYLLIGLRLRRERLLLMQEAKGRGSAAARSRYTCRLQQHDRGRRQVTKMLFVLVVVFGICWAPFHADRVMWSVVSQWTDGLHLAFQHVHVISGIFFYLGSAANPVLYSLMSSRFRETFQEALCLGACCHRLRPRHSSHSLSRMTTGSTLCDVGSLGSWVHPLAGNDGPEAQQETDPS
# Procedure: as §1, §2
# [4] = target: T4, SSTR4 (Homo sapiens, UniProt P31391); assay: NanoBRET screen HiBiT-SSTR4 in HEK293
# T4 construct: purchased Promega (in-house HiBiT-GPCR construct library, NanoBRET)
# T4 sequence (P31391 whole entry): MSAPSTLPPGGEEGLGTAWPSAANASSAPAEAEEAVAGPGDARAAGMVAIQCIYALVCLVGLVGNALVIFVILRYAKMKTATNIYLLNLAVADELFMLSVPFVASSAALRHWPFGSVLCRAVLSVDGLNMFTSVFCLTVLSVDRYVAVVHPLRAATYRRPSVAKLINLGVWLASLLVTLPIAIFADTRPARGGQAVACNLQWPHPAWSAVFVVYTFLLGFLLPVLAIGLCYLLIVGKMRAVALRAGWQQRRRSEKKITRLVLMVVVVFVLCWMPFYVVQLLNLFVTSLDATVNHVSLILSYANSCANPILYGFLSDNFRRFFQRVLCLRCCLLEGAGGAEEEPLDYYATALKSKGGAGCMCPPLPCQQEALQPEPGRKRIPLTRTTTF
# Procedure: as §1, §2
NanoBRET Fold Response ([1]; 0.1μM tracer),NanoBRET Fold Response ([1]; 1μM tracer),NanoBRET Fold Response ([2]; 0.1μM tracer),NanoBRET Fold Response ([2]; 1μM tracer),NanoBRET Fold Response ([3]; 0.1μM tracer),NanoBRET Fold Response ([3]; 1μM tracer),NanoBRET Fold Response ([4]; 0.1μM tracer),NanoBRET Fold Response ([4]; 1μM tracer),Compound,"NanoBRET Fold Response ([1]; CCR6, 0.1μM tracer)","NanoBRET Fold Response ([1]; CCR6, 1μM tracer)","NanoBRET Fold Response ([2]; FPR3, 0.1μM tracer)","NanoBRET Fold Response ([2]; FPR3, 1μM tracer)","NanoBRET Fold Response ([3]; NMUR1, 0.1μM tracer)","NanoBRET Fold Response ([3]; NMUR1, 1μM tracer)","NanoBRET Fold Response ([4]; SSTR4, 0.1μM tracer)","NanoBRET Fold Response ([4]; SSTR4, 1μM tracer)",also measured
0.86,0.98,0.85,1.06,0.78,0.97,0.93,1.01,COc1ccc2c(n1)c(CCNC(C)=O)cn2CCNC(=O)CCc1ccc2n1[B-](F)(F)[N+]1=C(c3ccc[nH]3)C=CC1=C2 [Azamelatonin-1-NB590],–,–,–,–,–,–,–,–,–
0.85,1.20,1.46,1.02,0.77,0.91,0.84,0.98,COc1ccc2[nH]c(-c3ccc(CNC(=O)CCOCCOCCOCCOCCNC(=O)CCc4ccc5n4[B-](F)(F)[N+]4=C(c6ccc[nH]6)C=CC4=C5)cc3)c(CCNC(C)=O)c2n1 [AzomelatoninICO9-2-NB590],–,–,–,–,–,–,–,–,–
–,–,–,–,–,–,–,–,O=C(CCOCCOCCOCCOCCNC(=O)CCc1ccc2n1[B-](F)(F)[N+]1=C(c3ccc[nH]3)C=CC1=C2)NCCCN1CCN(C2=Nc3cc(Cl)ccc3Nc3ccccc32)CC1 [Clozapine-a-2-NB590],1.05,0.97,0.92,1.30,1.14,1.16,1.11,1.20,–
–,–,–,–,–,–,–,–,CN1CCN(C2=Nc3cc(Cl)ccc3Nc3ccc(CNC(=O)CCOCCOCCOCCOCCNC(=O)CCc4ccc5n4[B-](F)(F)[N+]4=C(c6ccc[nH]6)C=CC4=C5)cc32)CC1 [Clozapine-b-2-NB590],1.03,0.97,1.06,1.23,0.98,0.94,0.97,1.02,–
–,–,–,–,–,–,–,–,CN1CCN(C2=Nc3cc(Cl)ccc3N(CC(=O)NCCOCCOCCOCCOCCNC(=O)CCc3ccc4n3[B-](F)(F)[N+]3=C(c5ccc[nH]5)C=CC3=C4)c3ccccc32)CC1 [Clozapine-c-2-NB590],0.99,0.91,1.08,1.01,1.01,1.00,1.03,1.00,–
–,–,–,–,–,–,–,–,O=C(CCOCCOCCOCCOCCNC(=O)CCc1ccc2n1[B-](F)(F)[N+]1=C(c3ccc[nH]3)C=CC1=C2)NCCCN1CCN(C2=Nc3ccccc3Oc3ccc(Cl)cc32)CC1 [Loxapine-a-2-NB590],–,–,–,–,–,–,–,–,"NanoBRET Fold Response ([1]; CCR6, tracer 0.1μM): 1.00; NanoBRET Fold Response ([1]; CCR6, tracer 1μM): 0.97; NanoBRET Fold Response ([2]; FPR3, tracer 0.1μM): 1.02; NanoBRET Fold Response ([2]; FPR3, tracer 1μM): 1.07; NanoBRET Fold Response ([3]; NMUR1, tracer 0.1μM): 1.02; NanoBRET Fold Response ([3]; NMUR1, tracer 1μM): 1.21; NanoBRET Fold Response ([4]; SSTR4, tracer 0.1μM): 1.00; NanoBRET Fold Response ([4]; SSTR4, tracer 1μM): 1.09"
